Data: PubChem BioAssay (NCI)
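Growth conditions: 96-well plates. Treatment: test compound, 48 hours, 5 concentrations. Analysis: linear interpolation between bracketing concentrations; unreached endpoints set to highest concentration. TGI: concentration producing complete growth inhibition.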

What was measured:
Experiment in all cases: inhibition of tumour cell growth, NCI panel, 48 h
786-0 renal = system: 786-0 renal
A498 renal = system: A498 renal
A549 NSCLC = system: A549 NSCLC
HCC-2998 colon = system: HCC-2998 colon
HCT-116 colon = system: HCT-116 colon
HOP-62 NSCLC = system: HOP-62 NSCLC
HOP-92 NSCLC = system: HOP-92 NSCLC
HS 578T breast = system: HS 578T breast
K-562 leukemia = system: K-562 leukemia
MOLT-4 leukemia = system: MOLT-4 leukemia
NCI-H460 lung = system: NCI-H460 lung
OVCAR-4 ovarian = system: OVCAR-4 ovarian
RPMI-8226 leukemia = system: RPMI-8226 leukemia
SF-539 CNS = system: SF-539 CNS
SK-MEL-28 melanoma = system: SK-MEL-28 melanoma
SN12C renal = system: SN12C renal
SNB-19 CNS = system: SNB-19 CNS
U251 CNS = system: U251 CNS

Row | Structure (SMILES) | TGI (786-0 renal) [µM] | TGI (A498 renal) [µM] | TGI (A549 NSCLC) [µM] | TGI (HCC-2998 colon) [µM] | TGI (HCT-116 colon) [µM] | TGI (HOP-62 NSCLC) [µM] | TGI (HOP-92 NSCLC) [µM] | TGI (HS 578T breast) [µM] | TGI (K-562 leukemia) [µM] | TGI (MOLT-4 leukemia) [µM] | TGI (NCI-H460 lung) [µM] | TGI (OVCAR-4 ovarian) [µM] | TGI (RPMI-8226 leukemia) [µM] | TGI (SF-539 CNS) [µM] | TGI (SK-MEL-28 melanoma) [µM] | TGI (SN12C renal) [µM] | TGI (SNB-19 CNS) [µM] | TGI (U251 CNS) [µM]
1 | COc1ccc(-c2c3c(n(C4OC(CO)C(O)C(O)C4O)c(=S)c2C#N)CC(C)(C)CC3=O)cc1 (centres undefined) | > 100 | > 100 | > 100 | > 100 | > 100 | > 100 | > 100 | > 100 | > 100 | > 100 | > 100 | > 100 | > 100 | > 100 | > 100 | > 100 | > 100 | > 100
2 | OCCSCc1cc2c(O)c(c1)Cc1cc(CSCCO)cc(c1O)Cc1cc(CSCCO)cc(c1O)Cc1cc(CSCCO)cc(c1O)C2 | 12.5 | 17.3 | 20.4 | 23.1 | 13 | 15.6 | 15.2 | 42.8 | > 100 | > 100 | 7.84 | 13.9 | 30.6 | 12.6 | 13.1 | 22.7 | 15.9 | 16.8
3 | CCC(CC)C(=O)OC[n+]1cccc(-c2c(COC(=O)NC(C)C)c(COC(=O)NC(C)C)c3n2CCC3)c1 | > 100 | > 100 | > 100 | > 100 | > 100 | > 100 | > 100 | > 100 | > 100 | > 100 | > 100 | > 100 | > 100 | > 100 | > 100 | > 100 | > 100 | > 100
